Assay results reported in EPA's ToxValDB 9.5 (doi:10.2903/j.efsa.2009.174r).

What was measured:
Rattus norvegicus = details: acute; oral; mortality
Apis mellifera = details: acute; duration: 48 hours; dermal; mortality
Daphnia magna = details: chronic/long-term; duration: 21 days; reproduction
Anas platyrhynchos = details: acute, oral, unspecified
[1] = reproductive
Aphidius rhopalosiphi = details: not reported; mortality
Homo sapiens = details: clinical; oral; capsule; clinical signs
Pimephales promelas = details: chronic/long-term; duration: 34 days; reproduction
Colinus virginianus = details: oral; for LD50: acute, mortality
Zea sp. = details: chronic/long-term
Canidae = details: oral, Dog Other
Cyprinus carpio = details: acute; duration: 96 hours; mortality
Coturnix japonica = details: reproduction developmental; duration: 6 weeks
Landoltia sp. = details: chronic/long-term; duration: 14 days

**Q.** Which LD50 (Rattus norvegicus) does the source give for O=P(O)(O)CCCl [Ethephon] here?
**A.** Its LD50 is 1560 mg/kg.

**Q.** And the LD50 (Apis mellifera)?
**A.** Its LD50 is over 100 µg/piece.

**Q.** And the NOEC (Daphnia magna)?
**A.** Its NOEC is 67 mg/L.

**Q.** What about the NOEL (Anas platyrhynchos) of the same compound?
**A.** The NOEL was 450 mg/kg.

**Q.** And the LD50 (Anas platyrhynchos; mortality)?
**A.** The LD50 was 1420 mg/kg.

**Q.** And the NOAEL [1]?
**A.** The NOAEL was 22.8 mg/kg-day.

**Q.** What about the LEL (Aphidius rhopalosiphi) of the same compound?
**A.** Its LEL is 480 g/ha.

**Q.** What about the NOAEL (Homo sapiens) of the same compound?
**A.** Its NOAEL is 0.5 mg/kg-day.

**Q.** And the LC50 (Tagia sp.; acute, duration: 14 days, mortality)?
**A.** Its LC50 is over 60000 g/ha.

**Q.** And the NOEC (Tagia sp.; chronic/long-term, duration: 8 weeks, reproduction)?
**A.** The NOEC was at least 200 mg/kg.

**Q.** What about the NOEC (Pimephales promelas) of the same compound?
**A.** The NOEC was 43 mg/L.

**Q.** And the LD50 (Colinus virginianus; duration: 8 days, diet)?
**A.** The LD50 was over 450 mg/kg.

**Q.** And the LD50 (Colinus virginianus)?
**A.** The LD50 was 764 mg/kg.

**Q.** What about the NOEL (Colinus virginianus; short-term, duration: 8 days, diet) of the same compound?
**A.** The NOEL was over 530 mg/kg-day.

**Q.** What about the NOEC (Zea sp.) of the same compound?
**A.** Its NOEC is 2580 g/ha.

**Q.** And the NOAEL (Canidae; chronic, duration: 1 years, body weight)?
**A.** Its NOAEL is 27 mg/kg-day.

**Q.** And the NOAEL (Canidae; short-term, duration: 28 days, clinical chemistry)?
**A.** The NOAEL was 6 mg/kg-day.

**Q.** And the LC50 (Cyprinus carpio)?
**A.** The LC50 was over 100 µg/mL.

**Q.** What about the NOEL (Coturnix japonica) of the same compound?
**A.** Its NOEL is 159 mg/kg-day.

**Q.** What about the NOEC (Landoltia sp.) of the same compound?
**A.** Its NOEC is under 0.1 mg/L.
